Results from US20070128217A1 (priority 2003, published 2007).

Columns and labels:
[1] = test system: rabbit serum obtained by immunizing a rabbit with the SARS-CoV strain Frankfurt 1; format: binding; design: Binding of a rabbit serum to linear peptides / Binding of a rabbit serum to looped peptides / Rabbit serum linear peptides / Rabbit serum looped peptides / Binding of a rabbit serum to linear peptides of protein N of SARS-CoV Urbani (Rabbit serum linear peptides) / Binding of a rabbit serum to looped/cyclic peptides of protein N of SARS-CoV Urbani (Rabbit serum looped peptides): unit not given here
[2] = test system: control sera (pooled serum of ten healthy LUMC hospital workers; commercial negative donor pooled serum from the Dutch bloodbank); format: binding, human; design: Binding of Control serum LUMC to linear peptides / Binding of Control serum Blood-bank to linear peptides / Binding of Control serum LUMC to looped peptides / Binding of Control Serum Blood-Bank to Looped peptides / Binding of Control serum LUMC to linear peptides of the protein M of SARS-CoV Urbani / Binding of Control serum Blood-bank to linear peptides of the protein M of SARS-CoV Urbani / Binding of Control serum LUMC to looped peptides of the protein M of SARS-CoV Urbani / Binding of Control Serum Blood-Bank to Looped peptides of the protein M of SARS-CoV Urbani: unit not given here
[3] = test system: recombinant human anti-SARS-CoV antibody 03-018; format: binding; design: Binding of antibody 03-018 to linear peptides of the N protein of SARS-CoV Urbani / Binding of antibody 03-018 to looped/cyclic peptides of the N protein of SARS-CoV Urbani: unit not given here
[4] = test system: antibodies in sera from SARS patients (sera 1a, 1b, 2, 6, 37, 62, London, SARS-yellow, SARS-green); format: binding, human; design: Binding of serum 6 to linear peptides of protein X1 of SARS-CoV Urbani / Binding of serum 37 to linear peptides of protein X1 of SARS-CoV Urbani / Binding of serum 6 to looped/cyclic peptide (PEPSCAN-ELISA) / Binding of serum 37 to looped/cyclic peptide (PEPSCAN-ELISA) / Binding of serum 37 to looped/cyclic peptides of protein X1 of SARS-CoV Urbani / Binding of serum 6 to linear peptides of protein X2 / Binding of serum 37 to linear peptides of protein X2 / Binding of serum 37 to looped/cyclic peptides of protein X2 of SARS-CoV Urbani / Binding of serum 6 to linear peptides of protein M of SARS-CoV Urbani / Binding of serum 37 to linear peptides of protein M of SARS-CoV Urbani / Binding of serum 6 to looped/cyclic peptides of protein M of SARS-CoV Urbani / Binding of serum 37 to looped/cyclic peptides of protein M of SARS-CoV Urbani / Binding of serum 6 to linear peptides of protein X3 of SARS-CoV Urbani / Binding of serum 37 to linear peptides of protein X3 of SARS-CoV Urbani / Binding of serum 37 to looped/cyclic peptides of protein X3 of SARS-CoV Urbani / Binding of serum 6 to linear peptides of protein X4 of SARS-CoV Urbani / Binding of serum 37 to linear peptides of protein X4 of SARS-CoV Urbani / Binding of serum 37 to looped/cyclic peptides of protein X4 of SARS-CoV Urbani / Binding of serum 6 to linear peptides of protein X5 of SARS-CoV Urbani / Binding of serum 37 to linear peptides of protein X5 of SARS-CoV Urbani / Binding of serum 37 to looped/cyclic peptides of protein X5 of SARS-CoV Urbani / Binding of serum 6 to linear peptides of protein N of SARS-CoV Urbani / Binding of serum 37 to linear peptides of protein N of SARS-CoV Urbani / Binding of serum 6 to linear peptide (PEPSCAN-ELISA) / Binding of serum 1a to looped/cyclic peptides of protein N of SARS-CoV Urbani / Binding of serum 1b to looped/cyclic peptides of protein N of SARS-CoV Urbani / Binding of serum 2 to looped/cyclic peptides of protein N of SARS-CoV Urbani / Binding of serum 6 to looped/cyclic peptides of protein N of SARS-CoV Urbani / Binding of serum 37 to looped/cyclic peptides of protein N of SARS-CoV Urbani / Binding of serum 62 to looped/cyclic peptides of protein N of SARS-CoV Urbani / Binding of serum London to looped/cyclic peptides of protein N of SARS-CoV Urbani / Binding of serum SARS-green to looped/cyclic peptides of protein N of SARS-CoV Urbani: unit not given here

Sequence | Binding of a rabbit serum to linear peptides of protein N of SARS-CoV Urbani (Rabbit serum linear peptides) [1] | Binding of a rabbit serum to looped/cyclic peptides of protein N of SARS-CoV Urbani (Rabbit serum looped peptides) [1] | Binding of serum 1a to linear peptides of protein N of SARS-CoV Urbani [4] | Binding of serum 1a to looped/cyclic peptides of protein N of SARS-CoV Urbani [4] | Binding of serum 1b to linear peptides of protein N of SARS-CoV Urbani [4] | Binding of serum 1b to looped/cyclic peptides of protein N of SARS-CoV Urbani [4] | Binding of serum 2 to linear peptides of protein N of SARS-CoV Urbani [4] | Binding of serum 2 to looped/cyclic peptides of protein N of SARS-CoV Urbani [4] | Binding of serum 6 to linear peptides of protein N of SARS-CoV Urbani [4] | Binding of serum 6 to looped/cyclic peptides of protein N of SARS-CoV Urbani [4] | Binding of serum 37 to linear peptides of protein N of SARS-CoV Urbani [4] | Binding of serum 37 to looped/cyclic peptides of protein N of SARS-CoV Urbani [4] | Binding of serum 62 to linear peptides of protein N of SARS-CoV Urbani [4] | Binding of serum 62 to looped/cyclic peptides of protein N of SARS-CoV Urbani [4] | Binding of serum London to linear peptides of protein N of SARS-CoV Urbani [4] | Binding of serum London to looped/cyclic peptides of protein N of SARS-CoV Urbani [4] | Binding of serum SARS-green to linear peptides of protein N of SARS-CoV Urbani [4] | Binding of serum SARS-green to looped/cyclic peptides of protein N of SARS-CoV Urbani [4] | Binding of serum SARS-yellow to linear peptides of protein N of SARS-CoV Urbani [4] | Binding of serum SARS-yellow to looped/cyclic peptides of protein N of SARS-CoV Urbani [4] | further results
TDYKHWPQIAQFAPS | 0.2 | 0.5 | 0.3 | 0.6 | 0.2 | 0.5 | 0.2 | 0.8 | 0.2 | 0.5 | 0.8 | 0.9 | 0.9 | 1.3 | 0.7 | 0.7 | 0.4 | 0.6 | 0.7 | 0.9 | Control Serum Blood-Bank Looped peptides [2]: 1.2; Control serum Blood-bank linear peptides [2]: 0.8; Control serum LUMC linear peptides [2]: 0.8; Control serum LUMC looped peptides [2]: 1.1; Binding of antibody 03-018 to linear peptides of the N protein of SARS-CoV Urbani [3]: 0.1; Binding of antibody 03-018 to looped/cyclic peptides of the N protein of SARS-CoV Urbani [3]: 0.2
ASAFFGMSRIGMEVT | 0.1 | 0.5 | 0.2 | 0.3 | 0.3 | 0.2 | 0.2 | 0.3 | 0.2 | 0.1 | 0.7 | 0.5 | 0.7 | 0.4 | 0.8 | 0.3 | 0.3 | 0.3 | 0.7 | 0.6 | Control Serum Blood-Bank Looped peptides [2]: 0.5; Control serum Blood-bank linear peptides [2]: 0.7; Control serum LUMC linear peptides [2]: 0.7; Control serum LUMC looped peptides [2]: 0.4; Binding of antibody 03-018 to linear peptides of the N protein of SARS-CoV Urbani [3]: 0.1; Binding of antibody 03-018 to looped/cyclic peptides of the N protein of SARS-CoV Urbani [3]: 0.2
RITFGGPTDSTDNNQ | 0.3 | 0.1 | 0.2 | 0.3 | 0.1 | 0.2 | 0.2 | 0.2 | 0.1 | 0.2 | 0.8 | 0.5 | 0.6 | 0.3 | 0.5 | 0.3 | 0.5 | 0.4 | 1.3 | 0.2 | Binding of Control Serum Blood-Bank to Looped peptides [2]: 0.6; Binding of Control serum Blood-bank to linear peptides [2]: 0.6; Binding of Control serum LUMC to linear peptides [2]: 0.5; Binding of Control serum LUMC to looped peptides [2]: 0.5; Recognition of the peptide by antibody 03-018 [3]: recognized
KQRRPQGLPNNTASW | 0.1 | 0.6 | 0.2 | 0.4 | 0.1 | 0.2 | 0.2 | 0.4 | 0.1 | 0.4 | 0.7 | 0.6 | 0.6 | 0.5 | 0.4 | 0.6 | 0.3 | 0.3 | 0.5 | 0.7 | Binding of Control Serum Blood-Bank to Looped peptides [2]: 0.6; Binding of Control serum Blood-bank to linear peptides [2]: 0.7; Binding of Control serum LUMC to linear peptides [2]: 0.5; Binding of Control serum LUMC to looped peptides [2]: 0.6; Binding of antibody 03-018 to linear peptides of the N protein of SARS-CoV Urbani [3]: 0.1; Binding of antibody 03-018 to looped/cyclic peptides of the N protein of SARS-CoV Urbani [3]: 0.2
